The text below walks through data of patent US10072034B2, “Kinase inhibitors” (Respivert Limited, priority 2016, dated 2018).

A short description of series [1]: Solubility in fasted-state simulated colonic fluid (FaSSCoF) at pH 6.5. The format is physicochemical. As to conditions: pH 6.5, 25° C.; for solubility thermodynamic at 24 h: fasted-state simulated colonic fluid (FaSSCoF), 25 °C, pH 6.5, fassgf or other biorelevant, thermodynamic from solid. On the procedure: The solubilities of compounds of the invention in FaSSCoF at pH 6.5 are determined using a modification of a previously-reported procedure (Vertzoni, M., et al. Pharm. Res. 2010, 27, 2187-2196). In place of the bile salt extract employed in the original procedure (which extract is no longer available), the modified procedure uses a mixture of sodium taurocholate (0.15 g), glycocholic acid (0.15 g), ursodeoxycholic acid (0.05 g), cholic acid (0.05 g), and glycodeoxycholic acid (0.05 g). These five bile acids are ground together with a mortar and pestle to produce a fine white powder that is incorporated into the FaSSCoF, as outlined below.
FaSSCoF medium: Tris(hydroxymethyl)aminomethane (Tris; 0.275 g) and maleic acid (0.44 g) are dissolved in water (35 mL) to give a solution whose pH is adjusted to 6.5 by treatment with 0.5M NaOH (ca. 12 mL). The solution is then made up to 50 mL with water. A portion of this Tris/maleate buffer solution (ca. 25 mL) is added to a 0.5 L round-bottomed flask, before being treated with 0.00565 g of the bile acid mixture described above. Solutions of phosphatidylcholine (0.0111 g) in DCM (0.15 mL) and palmitic acid (0.0013 g) in DCM (0.15 mL) are added, then the organic solvent is evaporated off under reduced pressure at 40° C. until a clear solution, with no perceptible DCM odour, is achieved. The volume of the evaporated solution is adjusted to 50 mL by addition of the remainder of Tris/maleate buffer, then BSA (0.115 g) is added, before being dissolved by gentle agitation.
Solubility Determination: Test compounds are suspended in the pH 6.5 FaSSCoF medium to give a maximum final concentration of 2-10 mg/mL. The suspensions are equilibrated at 25° C. for 24 h, before being filtered through a glass fibre C filter. The filtrates are then diluted as appropriate for injection and quantification by HPLC with reference to a standard. Different volumes of the standard, diluted and undiluted sample solutions are injected and the solubilities are calculated using the peak areas determined by integration of the peak found at the same retention time as the principal peak in the standard injection.

The test system of a further series is IL-8 release in PBMCs. In words: LPS-induced IL-8 release in PBMC cells (assay (b)). The format is cell-based. As to conditions: Homo sapiens, LPS-stimulated PBMCs. From the text: Peripheral blood mononuclear cells (PBMCs) from healthy subjects are separated from whole blood using a density gradient (Lymphoprep, Axis-Shield Healthcare). […] The supernatant is harvested for determination of IL-8 and TNFα concentrations by sandwich ELISA (Duo-set, R&D systems) and read on the fluorescence microplate reader (Varioskan® Flash, ThermoFisher Scientific).

Where [2] appears, read: Run 1, read-out: pH 6.5 FaSSCoF Solubility Run 1.
[3] abbreviates: Run 2, read-out: pH 6.5 FaSSCoF Solubility Run 2.

≈ marks a conversion by molar mass, not a printed value. Structures can show the parent of a compound that is named as a salt. Where two headings read alike, the source gives them in different places.

With `COc1cc(Nc2cc(Oc3ccc(NC(=O)Nc4cc(C(C)(C)C)cc(NS(C)(=O)=O)c4OC)c4ccccc34)ccn2)cc(OCCOCCOC(C)C(=O)O)c1` (single isomer, unassigned) [20(a)], the solubility thermodynamic at 24 h in series [1] (setting [2]) was 620 µg/mL (≈ 745 µM); in series [1] (setting [3]), 640 µg/mL (≈ 769 µM). One may read the IC50 as the concentration that gives 50% inhibition. A high value points to lower potency. `COc1cc(Nc2cc(Oc3ccc(NC(=O)Nc4cc(C(C)(C)C)cc(NS(C)(=O)=O)c4OC)c4ccccc34)ccn2)cc(C(=O)NCCOCCOCC(=O)O)c1` [Example 1, 2-(2-(2-(3-((4-((4-(3-(5-(tert-Butyl)-2-methoxy-3-(methylsulfonamido)phenyl)ureido)-naphthalen-1-yl)oxy)pyridin-2-yl)amino)-5-methoxybenzamido)ethoxy)ethoxy)acetic acid, hydrochloride salt] yielded a half-maximal inhibitory concentration (IC50) in the series with IL-8 release in PBMCs of 115 nM. Same read-out and setting: then `[2H]C([2H])([2H])Oc1c(NC(=O)Nc2ccc(Oc3ccnc(Nc4cc(OC)cc(OCCOCCOCC(=O)O)c4)c3)c3ccccc23)cc(C(C)(C)C)cc1NS(C)(=O)=O` [Example 5, 2-(2-(2-(3-((4-((4-(3-(5-(tert-Butyl)-2-(methoxy-d3)-3-(methylsulfonamido)phenyl)ureido)-naphthalen-1-yl)oxy)pyridin-2-yl)amino)-5-methoxyphenoxy)ethoxy)ethoxy)acetic acid], with 19.5 nM; and `COc1cc(Nc2cc(Oc3ccc(NC(=O)Nc4cc(C(C)(C)C)cc(NS(C)(=O)=O)c4OC)c4ccccc34)ccn2)cc(OCCOCCOCC(=O)NS(C)(=O)=O)c1` [Example 6], with 18.1 nM. Regarding `COc1cc(Nc2cc(Oc3ccc(NC(=O)Nc4cc(C(C)(C)C)cc([S+](C)[O-])c4OC)c4ccccc34)ccn2)cc(OCCOCCOCC(=O)O)c1` (centres unmarked) [Example 8, 2-(2-(2-(3-((4-((4-(3-(5-(tert-Butyl)-2-methoxy)-3-(methylsulfinyl)phenylureido)naphthalen-1-yl)oxy)pyridin-2-yl)amino)-5-methoxyphenoxy)ethoxy)ethoxy)acetic acid], in the series on IL-8 release in PBMCs, the 50% inhibitory concentration (IC50) was 8 nM. The values for the solubility thermodynamic at 24 h in series [1] (setting [2]) and in series [1] (setting [3]) were 2800 µg/mL (≈ 3560 µM) and 3200 µg/mL (≈ 4070 µM), respectively.

`COc1cc(Nc2cc(Oc3ccc(NC(=O)Nc4cc(C(C)(C)C)cc(S(C)(=O)=O)c4OC)c4ccccc34)ccn2)cc(OCCOCCOCC(=O)O)c1` [Example 9, 2-(2-(2-(3-((4-((4-(3-(5-(tert-Butyl)-2-methoxy-3-(methylsulfonyl)phenyl)ureido)naphthalen-1-yl)oxy)pyridin-2-yl)amino)-5-methoxphenoxy)ethoxy)ethoxy)acetic acid]: the midpoint of inhibition with IL-8 release in PBMCs, the IC50, lay at 11.7 nM. Besides, the solubility thermodynamic at 24 h in series [1] (setting [2]) was 460 µg/mL (≈ 573 µM); in series [1] (setting [3]), 540 µg/mL (≈ 673 µM). `COc1cc(Nc2cc(Oc3ccc(NC(=O)Nc4cc(C(C)(C)C)cc(P(C)(C)=O)c4OC)c4ccccc34)ccn2)cc(OCCOCCOCC(=O)O)c1` [Example 10, 2-(2-(2-(3-((4-((4-(3-(5-(tert-Butyl)-3-(dimethylphosphoryl)-2-methoxyphenyl)ureido)-naphthalen-1-yl)oxy)pyridin-2-yl)amino)-5-methoxyphenoxy)ethoxy)ethoxy)acetic acid]: in the series on IL-8 release in PBMCs, the IC50 is 26.5 nM. `COc1cc(Nc2cc(Oc3ccc(NC(=O)Nc4cc(C(C)(C)C)cc(NS(C)(=O)=O)c4OC)c4ccccc34)ccn2)cc(OCCOCc2cc(C(=O)O)co2)c1` [Example 12, 5-((2-(3-((4-((4-(3-(5-(tert-Butyl)-2-methoxy-3-(methylsulfonamido)phenyl)ureido)naphthalen-1 yl)oxy)pyridin-2-yl)amino)-5-methoxyphenoxy)ethoxy)methyl)furan-3-carboxylic acid] displayed an IC50 with IL-8 release in PBMCs of 5.6 nM.

Compound `COc1cc(Nc2cc(Oc3ccc(NC(=O)Nc4cc(C(C)(C)C)cc(NS(C)(=O)=O)c4OC)c4ccccc34)ccn2)cc(OCCOCC2CC(C(=O)O)CO2)c1` (centres unmarked) [Example 13, 5-((2-(3-((4-((4-(3-(5-(tert-Butyl)-2-methoxy-3-methylsulfonamido)phenylureido)naphthalen-1-yl)oxy)pyridin-2-yl)amino)-5-methoxyphenoxy)ethoxy)methyl)tetrahydrofuran-3-carboxylic acid] came in with a half-maximal inhibitory concentration (IC50) in the series with IL-8 release in PBMCs of 2.8 nM. Compared with the last compound, the IC50 is about 2-fold lower. Regarding `COc1cc(Nc2cc(Oc3ccc(NC(=O)Nc4cc(C(C)(C)C)cc(NS(C)(=O)=O)c4OC)c4ccccc34)ccn2)cc(OCCOCCOC(C)C(=O)O)c1` (centres unmarked) [Example 14], the figures for the solubility thermodynamic at 24 h in series [1] (setting [2]) and in series [1] (setting [3]) were 1200 µg/mL (≈ 1440 µM) and 1100 µg/mL (≈ 1320 µM), respectively. In turn, `CCS(=O)(=O)c1cc(C(C)(C)C)cc(NC(=O)Nc2ccc(Oc3ccnc(Nc4cc(OC)cc(OCCOCCOCC(=O)O)c4)c3)c3ccccc23)c1OC` [Example 15] registered a half-maximal inhibitory concentration (IC50) in the series on IL-8 release in PBMCs of 16.4 nM. That is a double-digit nanomolar value. Regarding `CCS(=O)(=O)Nc1cc(C(C)(C)C)cc(NC(=O)Nc2ccc(Oc3ccnc(Nc4cc(OC)cc(OCCOCCOCC(=O)O)c4)c3)c3ccccc23)c1OC` [Example 16], the IC50 in the series with IL-8 release in PBMCs turned out to be 16.3 nM.

With `COc1cc(Nc2cc(Oc3ccc(NC(=O)Nc4cc(C(C)(C)C)on4)c4ccccc34)ccn2)cc(OCCOCCOCC(=O)O)c1` [Example 17, 2-(2-(2-(3-((4-((4-(3-(5-(tert-Butyl)isoxazol-3-yl)ureido)naphthalen-1-yl)oxy)pyridin-2-yl)amino)-5-methoxyphenoxy)ethoxy)ethoxy)acetic acid], the values for the solubility thermodynamic at 24 h in series [1] (setting [2]) and in series [1] (setting [3]) were 1700 µg/mL (≈ 2480 µM) and 1500 µg/mL (≈ 2190 µM), respectively. As for `COc1cc(Nc2cc(Oc3ccc(NC(=O)Nc4cc(C(C)(C)C)cc(NS(C)(=O)=O)c4OC)c4ccccc34)ccn2)cc(OCCOCCOCc2cc(=O)o[nH]2)c1` [Example 18], half-maximal inhibition with IL-8 release in PBMCs (IC50) was put at 29.3 nM. As to `COc1cc(Nc2cc(Oc3ccc(NC(=O)Nc4cc(C(C)(C)C)cc(NS(C)(=O)=O)c4OC)c4ccccc34)ccn2)cc(OCCOCCSCC(=O)O)c1` [Example 19, 2-((2-(2-(3-((4-((4-(3-(5-(tert-Butyl)-2-methoxy-3-(methylsulfonamido)phenyl)ureido)-naphthalen-1-yl)oxy)pyridin-2-yl)amino)-5-methoxyphenoxy)ethoxy)ethyl)thio)acetic acid], in the series on IL-8 release in PBMCs, the IC50 turned out to be 2.9 nM. Moreover, the solubility thermodynamic at 24 h in series [1] (setting [2]) and in series [1] (setting [3]) was 30 µg/mL (≈ 36 µM) throughout. The compound `COc1cc(Nc2cc(Oc3ccc(NC(=O)Nc4cc(C(C)(C)C)cc(NS(C)(=O)=O)c4OC)c4ccccc34)ccn2)cc(OCCOCCOC(C)(C)C(=O)O)c1` [Example 21] had a concentration for half-maximal inhibition (IC50) in the series with IL-8 release in PBMCs of 14.4 nM. On to `COc1cc(Nc2cc(Oc3ccc(NC(=O)Nc4cc(C(C)(C)C)cc(NS(C)(=O)=O)c4OC)c4ccccc34)ccn2)cc(OCCOCCn2cc(C(=O)O)cn2)c1` [Example 22], for which the half-inhibitory concentration (IC50) in the series with IL-8 release in PBMCs came out at 18.1 nM. Same read-out and setting: then `COc1cc(Nc2cc(Oc3ccc(NC(=O)Nc4cc(C(C)(C)C)cc(NS(C)(=O)=O)c4OC)c4ccccc34)ccn2)cc(OCCOCC(=O)O)c1` [Example 24], with 61.9 nM; and `COc1cc(Nc2cc(Oc3ccc(NC(=O)Nc4cc(C(C)(C)C)cc(NS(C)(=O)=O)c4OC)c4ccccc34)ccn2)cc(OCCOCCOCC(=O)NS(=O)(=O)N(C)C)c1` [Example 25], with 26.3 nM; and `COc1cc(Nc2cc(Oc3ccc(NC(=O)Nc4cc(C(C)(C)C)cc(NS(C)(=O)=O)c4OC)c4ccccc34)ccn2)cc(OCCOCc2ccc(C(=O)O)s2)c1` [Example 26], with 15.3 nM. For `COc1cc(Nc2cc(Oc3ccc(NC(=O)Nc4cc(C(C)(C)C)cc(NS(C)(=O)=O)c4OC)c4ccccc34)ccn2)cc(OCCOCc2cc(C(=O)O)cs2)c1` [Example 27], in the series with IL-8 release in PBMCs, the IC50 came out at 7.3 nM.

Compound `COc1c(NC(=O)Nc2ccc(Oc3ccnc(Nc4cc(OCCOCCOCC(=O)O)cc(OC(F)F)c4)c3)c3ccccc23)cc(C(C)(C)C)cc1NS(C)(=O)=O` [Example 28] came in with a half-maximal inhibitory concentration (IC50) with IL-8 release in PBMCs of 20.6 nM.

On to `COc1cc(Nc2nccc(Oc3ccc(NC(=O)Nc4cc(C(C)(C)C)cc(NS(C)(=O)=O)c4OC)c4ccccc34)n2)cc(OCCOCCOCCC(=O)O)c1` [Reference Compound A (sodium salt), reference compound], for which the solubility thermodynamic at 24 h in series [1] (Run 3, read-out: pH 6.5 FaSSCoF Solubility Run 3) was 30 µg/mL; in series [1] (Run 4, read-out: pH 6.5 FaSSCoF Solubility Run 4), 30 µg/mL. Moreover, the “pH 6.5 FaSSCoF Solubility Run 1” value in series [1] (24 h, Run 1) is given as 0.18 mg/mL. For the same compound, the “pH 6.5 FaSSCoF Solubility Run 2” value in series [1] (24 h, Run 2) is 0.12 mg/mL.
